Test results taken from patent US20230357440A1, “BISPECIFIC ANTIBODY AGAINST CD3 AND CD20 IN COMBINATION THERAPY FOR TREATING FOLLICULAR LYMPHOMA” (GENMAB A/S, priority 2020, published 2023).

Assays:
[1] = test system: Human Burkitt lymphoma Raji cells; type: cell-based; settings: no epcoritamab, bendamustine 0-20 μM, 48 hours
Method: (§1) Bendamustine, an alkylating agent that causes intra- and inter-strand crosslinks between DNA bases, is approved for treatment of CLL and indolent B-NHL. This experiment was performed to determine whether bendamustine impacts the anti-tumor activity of epcoritamab by using in vitro T-cell activation and cytotoxicity assays.
(§2) Briefly, Human Burkitt lymphoma (Raji [ATCC, cat. no. CCL-86]) and DLBCL (SU-DHL-4 [Deutsche Sammlung von Mikroorganismen und Zellkulturen—DSMZ, cat. no. ACC-495]) cell lines were used as target cells. Cells were cultured in culture medium (RPMI 1640 with HEPES and L-Glutamine supplemented with 10% heat-inactivated donor bovine serum with iron, and 1% [v/v] penicillin/streptomycin) to which 2 mM L-glutamine, and 1 mM sodium pyruvate were added, at 37° C., 5% CO2. […] Isolated cells were washed twice in phosphate buffered saline (PBS) and counted using acridine orange/propidium iodide (AO/PI) viability staining solution (Nexcelom Bioscience) on a Cellometer® Auto 2000 Cell Viability Counter. […] B-cell viability and T-cell activation were measured by flow cytometry (count of CD22-positive cells; expression of the activation markers CD69, CD25, and CD107 [LAMP-1] on CD4+ and CD8+ T cells). The percentage cytotoxicity was calculated as follows: […]

[2] = test system: DLBCL SU-DHL-4 cells; type: cell-based, human; settings: no epcoritamab, bendamustine 0-20 μM, 48 hours
Method: as §1, §2

[3] = test system: double-refractory follicular lymphoma; settings: Salles et al., Haematologica 2017; cited from earlier work
[4] = test system: T cells isolated from human healthy donor buffy coats; experiment: in vitro T-cell activation assay (flow cytometry; CD69, CD25, CD107/LAMP-1); type: cell-based
Method: as §1
Briefly, Human Burkitt lymphoma (Raji [ATCC, cat. no. CCL-86]) and DLBCL (SU-DHL-4 [Deutsche Sammlung von Mikroorganismen und Zellkulturen—DSMZ, cat. no. ACC-495]) cell lines were used as target cells. Cells were cultured in culture medium (RPMI 1640 with HEPES and L-Glutamine supplemented with 10% heat-inactivated donor bovine serum with iron, and 1% [v/v] penicillin/streptomycin) to which 2 mM L-glutamine, and 1 mM sodium pyruvate were added, at 37° C., 5% CO2. T cells, which were isolated from human healthy donor buffy coats by negative selection using the RosetteSep™ Human T Cell Enrichment Cocktail (Stemcell Technologies) followed by density centrifugation over a Ficoll gradient, both according to the manufacturer's instructions, were used as effector cells. Isolated cells were washed twice in phosphate buffered saline (PBS) and counted using acridine orange/propidium iodide (AO/PI) viability staining solution (Nexcelom Bioscience) on a Cellometer® Auto 2000 Cell Viability Counter. T cells (100,000 cells/well) were incubated with Raji or SU-DHL-4 cells (50,000 cells/well) in culture medium in the presence of epcoritamab (0.033 pg/mL-333 ng/mL) and bendamustine (0-20 μM) at 37° C., 5% CO2 for 48 hours. B-cell viability and T-cell activation were measured by flow cytometry (count of CD22-positive cells; expression of the activation markers CD69, CD25, and CD107 [LAMP-1] on CD4+ and CD8+ T cells). The percentage cytotoxicity was calculated as follows: […]

[5] = test system: relapsed/refractory (R/R) B-NHL; experiment: epcoritamab monotherapy clinical trial in R/R B-NHL (NCT03625037); type: in vivo, human; settings: R/R B-NHL patients, preliminary data
Excerpt: Epcoritamab as monotherapy is currently in a clinical trial for the treatment of relapsed/refractory (R/R) B-NHL (ClinicalTrials.gov Identifier: NCT03625037).

[6] = test system: previously untreated follicular lymphoma; experiment: Phase 1b study of epcoritamab in combination with rituximab and bendamustine (BR); type: in vivo
Method: The Part 1 dose escalation assesses the initial safety, tolerability, and clinical activity of epcoritamab in combination with BR. Epcoritamab is initially be administered in combination with BR in a 3-subject cohort. DLTs are evaluated during the first 28 days. Depending on the number of DLTs observed in the initial 3 subjects, administration of epcoritamab (full dose: 48 mg or 24 mg) in combination with BR is performed in an additional 3 patients as shown in FIG. 3.
In Part 2, epcoritamab is administered (with the dosing regimen determined in the dose escalation part) in combination with BR. The expansion will include 20 subjects in order to evaluate the preliminary clinical activity of the combination, in addition to safety, tolerability, PK, pharmacodynamic, and immunogenicity data.
A step-up dosing method is used for epcoritamab to mitigate the potential for CRS: priming dose (0.16 mg) on cycle 1 day 1, followed by intermediate dose (0.8 mg) on cycle 1 day 8, full dose (24 mg or 48 mg) on cycle 1 day 15 and day 22, and full dose in subsequent cycles. […] Bendamustine (90 mg/m^2) is administered intravenously daily on days 1 and 2 of cycles 1-6. If bendamustine is started later than day 1 of a cycle, then planned day 1 of the next cycle is calculated from the day when bendamustine was actually initiated in order to maintain the regular cycle interval of 28 days. […]
Safety is assessed by measuring adverse events, laboratory test results, ECGs, vital sign measurements, physical examination findings, and ECOG performance status. Also assessed are immune effector cell-associated neurotoxicity syndrome (e.g., as described by Lee et al., Biol BloodMarrow Transplant 2019; 25:625-638), constitutional symptoms (B symptoms), tumor flare reaction, and survival.

[7] = test system: CD20-expressing Raji-luc tumor cells; settings: even in the presence of an excess of rituximab variant with inert Fc domain (IgG1-RTX-FEAR); cited from earlier work
[8] = test system: primary DLBCL and follicular lymphoma patient biopsies; settings: cited from earlier work

Cn1c(CCCC(=O)O)nc2cc(N(CCCl)CCCl)ccc21 [bendamustine, 4-[5-[Bis(2-chloroethyl)amino]-1-methyl-iH-benzo[d]imidazole-2-yl]butanoic acid]
number of viable B cells, bendamustine alone [1]: decreased the number of viable B cells in a dose dependent manner | number of viable B cells, bendamustine alone [2]: decreased the number of viable B cells in a dose dependent manner

CC[C@H](Nc1ncnc2[nH]cnc12)c1nc2cccc(F)c2c(=O)n1-c1ccccc1 [idelalisib]
1-year PFS [3]: 43% | toxicities [3]: several toxicities leading to treatment discontinuation

epcoritamab: IgG1 bispecific CD3×CD20 antibody, heavy/light chains SEQ ID NOs: 24, 25 and 26, 27; CAS 2134641-34-0
epcoritamab-induced T-cell activation in the presence of bendamustine ([4]; bendamustine 0-20 μM, Raji or SU-DHL-4 cells, 48 hours): not affected by the presence of bendamustine at all concentrations tested | upregulation of T-cell activation markers on CD4+ T cells in the presence of bendamustine ([4]; bendamustine 0-20 μM, data not shown): not affected by bendamustine | activation of CD8+ T cells (upregulation of CD69, CD25 and LAMP-1) ([4]; in presence of Raji or SU-DHL-4 cells, epcoritamab 0.033 pg/mL-333 ng/mL, 48 hours): concentration-dependent activation of CD8+ T cells | dose-limiting toxicities [5]: no dose-limiting toxicities reported | tolerated dose ([5]; up to at least 48 mg, including 60 mg): at least 48 mg | responders in expansion phase ([6]; 48 mg expansion, as of Sep. 8, 2021, preliminary, non-validated data): 1 | responders in dose escalation phase ([6]; as of Sep. 8, 2021, 17 patients dosed in total, preliminary, non-validated data): 5 | grade of all CRS events ([6]; preliminary data): Grade ½ | most common related AEs ([6]; preliminary data): CRS and Nausea | tumor growth in the xenograft model [7]: effectively reduce tumor growth | tumor cell kill ([8]; biopsy taken 2 weeks after administering the anti-CD20 antibody): up to 40% | T-cell-mediated cytotoxicity in patient biopsies [8]: induced T-cell-mediated cytotoxicity
